Test results from the CheMixHub viscosity set.

Test: xn = mol fraction of the nth substance listed

N[C@@H](Cc1c[nH]cn1)C(=O)O + O
Conditions	viscosity [mPa·s]
293.15 K, 101 kPa, x1 = 0.005413	1.128
298.15 K, 100 kPa, x1 = 0.000193	0.8927
298.15 K, 100 kPa, x1 = 0.00027	0.898
298.15 K, 100 kPa, x1 = 0.00036	0.899
298.15 K, 100 kPa, x1 = 0.000403	0.895
298.15 K, 100 kPa, x1 = 0.00063	0.904
298.15 K, 100 kPa, x1 = 0.00072	0.907
298.15 K, 100 kPa, x1 = 0.00074	0.8987
298.15 K, 100 kPa, x1 = 0.00081	0.907
298.15 K, 100 kPa, x1 = 0.00099	0.91
298.15 K, 100 kPa, x1 = 0.00117	0.913
298.15 K, 100 kPa, x1 = 0.00171	0.921
298.15 K, 100 kPa, x1 = 0.001798	0.9349
298.15 K, 100 kPa, x1 = 0.0018	0.927
298.15 K, 100 kPa, x1 = 0.002157	0.9434
298.15 K, 100 kPa, x1 = 0.002516	0.9518
298.15 K, 100 kPa, x1 = 0.002876	0.9604
298.15 K, 101 kPa, x1 = 0.00027	0.898
298.15 K, 101 kPa, x1 = 0.00063	0.9034
298.15 K, 101 kPa, x1 = 0.0013	0.9127
298.15 K, 101 kPa, x1 = 0.00207	0.9208
298.15 K, 101.3 kPa, x1 = 0.0004504	0.898
298.15 K, 101.3 kPa, x1 = 0.0008971	0.903
298.15 K, 101.3 kPa, x1 = 0.001791	0.913
298.15 K, 101.3 kPa, x1 = 0.002688	0.924
303.15 K, 100 kPa, x1 = 0.00036	0.804
303.15 K, 100 kPa, x1 = 0.00045	0.807
303.15 K, 100 kPa, x1 = 0.00054	0.807
303.15 K, 100 kPa, x1 = 0.00108	0.817
303.15 K, 100 kPa, x1 = 0.00126	0.821
303.15 K, 100 kPa, x1 = 0.00144	0.827
303.15 K, 100 kPa, x1 = 0.00153	0.824
303.15 K, 100 kPa, x1 = 0.00162	0.827
303.15 K, 100 kPa, x1 = 0.002157	0.8407
303.15 K, 100 kPa, x1 = 0.002516	0.8474
303.15 K, 100 kPa, x1 = 0.002876	0.8544
303.15 K, 101 kPa, x1 = 0.00027	0.8035
303.15 K, 101 kPa, x1 = 0.00063	0.8079
303.15 K, 101 kPa, x1 = 0.0013	0.8152
303.15 K, 101 kPa, x1 = 0.00243	0.8255
303.15 K, 101 kPa, x1 = 0.003563	0.8636
303.15 K, 101 kPa, x1 = 0.005413	0.8992
303.15 K, 101.3 kPa, x1 = 0.0004504	0.804
303.15 K, 101.3 kPa, x1 = 0.002239	0.824
308.15 K, 100 kPa, x1 = 0.00027	0.727
308.15 K, 100 kPa, x1 = 0.00054	0.727
308.15 K, 100 kPa, x1 = 0.00135	0.743
308.15 K, 100 kPa, x1 = 0.00143	0.74
308.15 K, 100 kPa, x1 = 0.00144	0.7434
308.15 K, 100 kPa, x1 = 0.00171	0.748
308.15 K, 100 kPa, x1 = 0.002157	0.7543
308.15 K, 100 kPa, x1 = 0.002516	0.7596
308.15 K, 100 kPa, x1 = 0.002876	0.7651
308.15 K, 101 kPa, x1 = 0.00027	0.724
308.15 K, 101 kPa, x1 = 0.00063	0.7274
308.15 K, 101 kPa, x1 = 0.00099	0.7304
308.15 K, 101 kPa, x1 = 0.0013	0.7334
308.15 K, 101 kPa, x1 = 0.00243	0.7421
308.15 K, 101.3 kPa, x1 = 0.0004504	0.723
308.15 K, 101.3 kPa, x1 = 0.0008971	0.728
308.15 K, 101.3 kPa, x1 = 0.001346	0.733
308.15 K, 101.3 kPa, x1 = 0.002239	0.743
308.15 K, 101.3 kPa, x1 = 0.002688	0.748
313.15 K, 100 kPa, x1 = 0.000358	0.6589
313.15 K, 100 kPa, x1 = 0.00036	0.657
313.15 K, 100 kPa, x1 = 0.00099	0.672
313.15 K, 100 kPa, x1 = 0.00171	0.682
313.15 K, 100 kPa, x1 = 0.001798	0.6769
313.15 K, 100 kPa, x1 = 0.002516	0.6853
313.15 K, 100 kPa, x1 = 0.002876	0.6895
313.15 K, 101 kPa, x1 = 0.00027	0.6566
313.15 K, 101 kPa, x1 = 0.00063	0.6592
313.15 K, 101 kPa, x1 = 0.00092	0.6773
313.15 K, 101 kPa, x1 = 0.00243	0.6716
313.15 K, 101 kPa, x1 = 0.003563	0.7141
313.15 K, 101.3 kPa, x1 = 0.0004504	0.657
313.15 K, 101.3 kPa, x1 = 0.001791	0.672
313.15 K, 101.3 kPa, x1 = 0.002239	0.677
313.15 K, 101.3 kPa, x1 = 0.002688	0.682
318.15 K, 100 kPa, x1 = 0.00027	0.603
318.15 K, 100 kPa, x1 = 0.000358	0.6026
318.15 K, 100 kPa, x1 = 0.000718	0.6065
318.15 K, 100 kPa, x1 = 0.00099	0.614
318.15 K, 100 kPa, x1 = 0.00108	0.61
318.15 K, 100 kPa, x1 = 0.00117	0.616
318.15 K, 100 kPa, x1 = 0.00135	0.618
318.15 K, 100 kPa, x1 = 0.00144	0.6135
318.15 K, 100 kPa, x1 = 0.00171	0.623
318.15 K, 100 kPa, x1 = 0.002157	0.62
318.15 K, 100 kPa, x1 = 0.002516	0.6232
318.15 K, 100 kPa, x1 = 0.002876	0.6262
318.15 K, 101.3 kPa, x1 = 0.0004504	0.598
318.15 K, 101.3 kPa, x1 = 0.0008971	0.603
318.15 K, 101.3 kPa, x1 = 0.001791	0.613
318.15 K, 101.3 kPa, x1 = 0.002239	0.618
318.15 K, 101.3 kPa, x1 = 0.002688	0.623
323.15 K, 101 kPa, x1 = 0.00092	0.5791
323.15 K, 101 kPa, x1 = 0.001804	0.5862
323.15 K, 101 kPa, x1 = 0.003563	0.6075
323.15 K, 101 kPa, x1 = 0.005413	0.6374
